One data set deals with Rattus norvegicus. Conditions: for LD50: acute, oral, mortality; for NOEL: chronic.
The next data set deals with Anas platyrhynchos. Conditions: acute; oral; unspecified; mortality.
A further data set concerns Apis mellifera. Conditions: acute; duration: 48 hours; oral; unspecified; mortality.
The test system of a further data set is Canidae. Conditions: chronic; duration: 1 years; oral; Dog Other; organ weight.
For a further data set, the system named is Colinus virginianus. Conditions: for NOEC: reproduction developmental.
The test system of another data set is Folsomia candida. Conditions: chronic/long-term.
The next data set relates to Lepomis macrochirus. Conditions: acute; duration: 96 hours; mortality.
In another data set the test system is Mus musculus. Conditions: acute; oral; mortality.
The next data set deals with Pimephales promelas. Conditions: chronic/long-term; duration: 359 days; mortality.
For another data set, the system named is Tagia sp. Conditions: acute; duration: 14 days; mortality.
A further data set concerns Chrysoperla externa. The data set can be described thus: LR50; higher = less toxic. Particulars: not reported; mortality.

Data on 2 compounds can be found in EPA's ToxValDB 9.5 (doi:10.2903/j.efsa.2009.189r).

The structures appear in SMILES notation.

For `NC(=O)c1c(F)cccc1F` [Benzamide, 2,6-difluoro-], in the data set on Rattus norvegicus, the LD50 is 2060 mg/kg-day.

A word on the NOAEL: it is the highest dose or exposure tested at which no adverse effect was seen. Consider `O=C(NC(=O)c1c(F)cccc1F)Nc1cc(Cl)c(OC(F)(F)C(F)C(F)(F)F)cc1Cl` (configuration not stated) [Lufenuron], for which the LD50 with Anas platyrhynchos is 2000 mg/kg; with Apis mellifera it was over 197 µg/piece; in the data set with Colinus virginianus (acute, oral, mortality), 2000 mg/kg; with Mus musculus, over 2000 mg/kg-day; with Rattus norvegicus, over 2000 mg/kg-day. The same compound came in with a no observed adverse effect level (NOAEL) in the data set on Canidae of 1.5 mg/kg-day. The LC50 is 966 mg/kg-day in the data set on Colinus virginianus (acute, oral, diet, mortality); over 29 µg/mL in the data set on Lepomis macrochirus; over 1000 mg/kg in the data set on Tagia sp.. The NOEC in the data set on Colinus virginianus stood at 19.7 mg/kg-day; with Colinus virginianus (duration: 90 days), 20000 mg/kg-day; with Folsomia candida, 0.2 mg/kg; with Pimephales promelas it was 0.02 mg/L. Further, the NOEL is 10.9 mg/kg-day in the data set on Rattus norvegicus (F) and 8.3 mg/kg-day in the data set on Rattus norvegicus (M). Moreover, the LR50 in the data set with Chrysoperla externa worked out at 0.4 g/ha.
